Measurements as given in BigSolDB 2.1.

O=C(NCCO[N+](=O)[O-])c1cccnc1
solubility (mole fraction)
Settings	278.15 K	283.15 K	288.15 K	293.15 K	298.15 K	303.15 K	308.15 K	313.15 K	318.15 K	323.15 K
in DMF	0.0135	0.0146	0.0156	0.0168	0.0179	0.0191	0.0202	0.0213	0.0225	0.024
in ethanol	0.00153	0.00167	0.00181	0.00195	0.00208	0.00222	0.00236	0.0025	0.00264	0.00281
in isopropanol	0.0011	0.00119	0.00129	0.00139	0.00149	0.00159	0.00169	0.00178	0.00188	0.002
in methanol	0.0017	0.00182	0.00195	0.00211	0.00226	0.0024	0.00256	0.00271	0.00286	0.00306
in water	0.000204	0.000222	0.00024	0.000257	0.000275	0.000291	0.000307	0.000325	0.000346	0.000367
